From PMC12670317, “Targeted NAT10 Degradation by PROTAC NP1192 Suppresses Hypoxia-Adaptive Glycolysis and Reinvigorates CD8^+ Effector T‑Cell Function for Synergistic Cancer Immunotherapy” (ACS Central Science, 2025)

Key:
C57BL/6J mice = test: Acute toxicity in C57BL/6J mice; details: mouse, in vivo, 1000 mg/kg
Protocol: (§1) Six-weeks old C57BL/6J male mice were purchased from Guangzhou Southern Medical University Experimental Animal Technology Development Co. The mice were administered intraperitoneally NP1192 (100, 500, 1000 mg/kg). The survival of mice was monitored for 14 days, consecutively.

[1] = Acute toxicity in C57BL/6J mice; details: male, mouse, in vivo, ip; C57BL/6J mice, intraperitoneal, 14 days survival
Protocol: as §1

normal organoids = test: Normal organoids exposed to NP1192; format: cell-based, human; details: following NP1192 exposure
Protocol: Organoid culture was performed according to previously established protocols. Briefly, we procured patient-derived tissue samples provided and technically manipulated by Accurate International Biotechnology Co., Ltd. Subsequently, these samples were subjected to mechanical and enzymatic dissociation to disaggregate the tissue into single cells or small clusters, while preserving cellular integrity. Following this initial step, the isolated cells or tissue fragments were embedded within a 3D ECM scaffold, such as Matrigel or collagen. The ECM scaffold served as a supportive substrate, promoting cellular self-organization and mimicking native tissue architecture. Additionally, a precisely formulated cocktail of growth factors, cytokines, and signaling molecules tailored to the specific tissue of interest was meticulously formulated and added to the culture medium to facilitate organoid growth and maintenance.

NAT10 = biological target: T1, NAT10 (Homo sapiens, UniProt Q9H0A0); test: NAT10 degradation in SiHa cells, Western blot; format: cell-based
T1 construct: depletion of total NAT10 protein in SiHa (human) and U14 (murine) CCa cell lines; endogenous in cells; host or cells: SiHa (human cervical cancer cell line)
T1 sequence (Q9H0A0 1-1025): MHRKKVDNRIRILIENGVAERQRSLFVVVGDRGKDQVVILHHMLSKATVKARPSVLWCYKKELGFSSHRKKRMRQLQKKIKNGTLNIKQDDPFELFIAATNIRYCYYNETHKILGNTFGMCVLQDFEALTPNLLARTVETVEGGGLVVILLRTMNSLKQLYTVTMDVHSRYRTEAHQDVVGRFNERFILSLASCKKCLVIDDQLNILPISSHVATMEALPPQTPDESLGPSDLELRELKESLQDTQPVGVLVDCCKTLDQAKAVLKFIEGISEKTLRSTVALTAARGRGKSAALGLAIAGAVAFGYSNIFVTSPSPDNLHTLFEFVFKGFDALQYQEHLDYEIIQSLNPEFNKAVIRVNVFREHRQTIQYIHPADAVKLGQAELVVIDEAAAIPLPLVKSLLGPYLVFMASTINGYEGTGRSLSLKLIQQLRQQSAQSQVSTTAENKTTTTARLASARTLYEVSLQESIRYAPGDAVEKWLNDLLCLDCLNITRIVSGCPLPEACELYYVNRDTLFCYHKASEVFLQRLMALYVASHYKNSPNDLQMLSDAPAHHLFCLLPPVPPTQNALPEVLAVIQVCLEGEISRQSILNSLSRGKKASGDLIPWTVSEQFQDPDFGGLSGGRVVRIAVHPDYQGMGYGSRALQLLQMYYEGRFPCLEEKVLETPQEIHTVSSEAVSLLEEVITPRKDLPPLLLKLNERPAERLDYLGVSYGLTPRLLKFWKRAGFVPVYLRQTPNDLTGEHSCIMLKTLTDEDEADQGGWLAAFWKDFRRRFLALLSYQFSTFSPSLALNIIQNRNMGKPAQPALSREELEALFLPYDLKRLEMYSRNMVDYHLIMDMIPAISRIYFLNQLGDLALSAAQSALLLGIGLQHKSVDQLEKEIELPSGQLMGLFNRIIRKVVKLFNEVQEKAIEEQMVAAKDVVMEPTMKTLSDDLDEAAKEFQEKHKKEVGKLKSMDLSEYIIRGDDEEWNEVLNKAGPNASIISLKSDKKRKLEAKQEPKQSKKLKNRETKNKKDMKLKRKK
Protocol: The human CCa cell line SiHa and the normal epithelial foreskin fibroblast line HFF-1 were purchased from the Cell Bank of the Chinese Academy of Sciences. Additionally, murine cervical carcinoma cell line U14 (RRID:CVCL_9U56) was purchased from Boster Company. HFF-1 and U14 cells were cultured in Dulbecco’s modified Eagle’s medium (DMEM) (Gibco, USA) supplemented with 10% heat-inactivated fetal bovine serum (FBS; Gibco, USA), while SiHa cells were incubated in RPMI 1640 medium (Gibco, USA) in a humid atmosphere with 5% CO2 at 37 °C. For hypoxia exposure, the cells were incubated in a sealed culture tank containing 5% CO2 and 0.1% O2 (MGC, Japan) for 36 h.
RIPA lysis buffer (Beyotime, China) mixed with 1% protease inhibitor (Sigma, US) was added to the cells, and a sample of total protein was obtained and then loaded onto an 8% or 12% polyacrylamide gel. The gel was placed in a buffer solution, and an electric current was applied. The separated proteins were subsequently transferred from the gel onto a PVDF membrane. Next, the membrane was blocked with 5% milk for 1 h to prevent nonspecific antibody binding. The membranes were subsequently incubated with anti-NAT10 (1:1000, Abcam, USA), anti-PD-L1 (1:1000, Proteintech, China), anti-HIF-1α (1:1000, Abmart, China), and anti-β-tubulin (1:1000, Proteintech, China) primary antibodies for 12 h. Afterward, the membrane was sequentially washed with 1× TBST and incubated for 1 h with an antimouse secondary antibody (1:6000, Elabscience, China) or antirabbit secondary antibody (1:6000, Elabscience, China). The target proteins were detected via chemiluminescence with a ChemiDoc MP Imaging System (Bio-Rad, US).

N#Cc1ccc(-c2csc(N(CCCCCCC(=O)N3CCN(c4cccc5c4C(=O)N(C4CCC(=O)NC4=O)C5=O)CC3)N=C3CCCC3)n2)cc1 (centres unmarked) [NP1192]
tolerability in acute toxicity test (C57BL/6J mice): well-tolerated | LD50 at 14 days [1]: > 1000 mg/kg | architecture and cellular integrity of normal organoids (normal organoids): remained unaltered | NAT10 degradation rate (NAT10; SiHa cells, 1.25 μM, 36 h): 28% | NAT10 degradation rate (NAT10; SiHa cells, 2.5 μM, 36 h): 32% | NAT10 degradation rate (NAT10; SiHa cells, 5 μM, 36 h): 40% | NAT10 degradation rate (NAT10; SiHa cells, 10 μM, 36 h): 43% | NAT10 degradation rate (maximum) (NAT10; SiHa cells, 20 μM, 36 h): 69% | NAT10 degradation (NAT10; SiHa cells, after 24 h): 20% | NAT10 degradation rate (NAT10; SiHa cells, panel TP1–32 at the same time and concentration, Figure 1E): 71% | hook effect in NAT10 degradation (NAT10; concentrations as high as 20 μM): did not exhibit the classical hook effect
